Biological target: T1, mAChR M1 (UniProt P08482)
T1 sequence (P08482 1-460): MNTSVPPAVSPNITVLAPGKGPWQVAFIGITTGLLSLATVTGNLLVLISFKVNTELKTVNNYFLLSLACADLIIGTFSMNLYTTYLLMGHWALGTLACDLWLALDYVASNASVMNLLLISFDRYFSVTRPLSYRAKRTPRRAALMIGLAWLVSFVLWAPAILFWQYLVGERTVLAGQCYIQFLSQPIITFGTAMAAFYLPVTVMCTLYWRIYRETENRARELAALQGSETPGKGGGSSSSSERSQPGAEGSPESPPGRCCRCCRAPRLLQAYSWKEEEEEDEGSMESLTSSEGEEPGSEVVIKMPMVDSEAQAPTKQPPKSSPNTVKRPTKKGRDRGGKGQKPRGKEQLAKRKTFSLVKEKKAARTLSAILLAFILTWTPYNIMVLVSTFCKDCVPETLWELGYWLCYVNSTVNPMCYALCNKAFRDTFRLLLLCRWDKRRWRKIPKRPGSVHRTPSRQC
Experiment: mAChR M1 cell-based functional assay (calcium mobilization, Fluo-4, FDSS)
Conditions: positive allosteric modulation of EC20 acetylcholine response, CHO-K1 cells expressing mAChR M1; read-out: Potency (EC50)

- EC50: > 10 µM
Structure (SMILES): Cc1cc(NC(=O)CS(=O)(=O)c2cn(Cc3cccc(Br)c3F)c3ccccc23)no1 [compound 62, 2-{1-[(3-bromo-2-fluorophenyl)methyl]-1H-indole-3-sulfonyl}-N-(5-methyl-1,2-oxazol-3-yl)acetamide]

Source: patent US8772509B2, “Indole compounds as positive allosteric modulators of the muscarinic receptor” (Vanderbilt University, priority 2010, dated 2014)
